The source of these data is ChEMBL document CHEMBL1141566, “Synthesis and antitumor evaluation of bis aza-anthracene-9,10-diones and bis aza-anthrapyrazole-6-ones” (2008).

Test [1] relates to HT-29. The experiment in a line: Cytotoxicity against human HT29 cells after 72 hrs. In kind it is functional. Conditions: HT-29, 72 h.
A short description of test [2]: Ratio of Kapp for synthetic poly(dA-dT)]2 oligonucleotide to Kapp for synthetic poly(dG-dC)]2 oligonucleotide.

On to `CN(C)CCCn1nc2c3c(c(NCCCN(C)CCCNc4ccc5c6c(nn5CCCN(C)C)-c5cnccc5C(=O)c46)ccc31)C(=O)c1ccncc1-2`, for which, in test [1], growth was halved (GI50) at 1.6 µM, the LC50 (concentration killing 50% of cells) is greater than 100 µM and the TGI is greater than 100 µM.

`CN(C)CCCNc1ccc(NCCCN(C)CCCNc2ccc(NCCCN(C)C)c3c2C(=O)c2cnccc2C3=O)c2c1C(=O)c1ccncc1C2=O`: in test [1], the GI50 was determined as 2 µM, the LC50 (concentration killing 50% of cells) is greater than 100 µM and total growth inhibition (TGI) required 7.9 µM. In addition, in test [2], the Ratio worked out at 2.4.

In turn, `CCN(CC)CCNc1ccc(NCCCN(C)CCCNc2ccc(NCCN(CC)CC)c3c2C(=O)c2ccncc2C3=O)c2c1C(=O)c1cnccc1C2=O` had a GI50 in test [1] greater than 100 µM. In addition, the Ratio in test [2] came out at 5.

In test [1], `CN(C)CCn1nc2c3c(c(NCCCN(C)CCCNc4ccc5c6c(nn5CCN(C)C)-c5ccncc5C(=O)c46)ccc31)C(=O)c1cnccc1-2` gave a GI50 of 0.7 µM, an LC50 (concentration killing 50% of cells) greater than 100 µM and a TGI greater than 100 µM.

In test [1], `CCN(CC)CCn1nc2c3c(c(NCCCN(C)CCCNc4ccc5c6c(nn5CCN(CC)CC)-c5cnccc5C(=O)c46)ccc31)C(=O)c1ccncc1-2` came in with a GI50 of 0.001 µM, an LC50 (concentration killing 50% of cells) of 97 µM and a TGI of 4.5 µM.

In the case of `CCN(CC)CCNc1ccc(NCCCN(C)CCCNc2ccc(NCCN(CC)CC)c3c2C(=O)c2cnccc2C3=O)c2c1C(=O)c1ccncc1C2=O`, in test [1], the GI50 turned out to be 4.5 µM, the LC50 (concentration killing 50% of cells) is greater than 100 µM and the TGI was 32 µM. Moreover, the Ratio in test [2] worked out at 3.5.

In test [1], `CN(CCCNc1ccc(NCCN2CCCC2)c2c1C(=O)c1cnccc1C2=O)CCCNc1ccc(NCCN2CCCC2)c2c1C(=O)c1cnccc1C2=O` yielded a 50% growth inhibitory concentration (GI50) of 0.5 µM, an LC50 (concentration killing 50% of cells) greater than 100 µM and a TGI of 7.9 µM. Besides, in test [2], the Ratio was 2.4.

With `CN(C)CCCNc1ccc(NCCCN(C)CCCNc2ccc(NCCCN(C)C)c3c2C(=O)c2ccncc2C3=O)c2c1C(=O)c1cnccc1C2=O`, in test [1], the GI50 is greater than 100 µM. Besides, the Ratio in test [2] is 1.9.

Consider `CCN(CC)CCn1nc2c3c(c(NCCCN(C)CCCNc4ccc5c6c(nn5CCN(CC)CC)-c5ccncc5C(=O)c46)ccc31)C(=O)c1cnccc1-2`, for which, in test [1], the GI50 stood at 0.4 µM, the LC50 (concentration killing 50% of cells) is greater than 100 µM and the TGI was greater than 100 µM.

`CN(C)CCNc1ccc(NCCCN(C)CCCNc2ccc(NCCN(C)C)c3c2C(=O)c2ccncc2C3=O)c2c1C(=O)c1cnccc1C2=O` showed a GI50 in test [1] greater than 100 µM. Also, the Ratio in test [2] stood at 7.7.

In test [1], `CN(C)CCCn1nc2c3c(c(NCCCN(C)CCCNc4ccc5c6c(nn5CCCN(C)C)-c5ccncc5C(=O)c46)ccc31)C(=O)c1cnccc1-2` showed a 50% growth inhibitory concentration (GI50) of 40 µM, an LC50 (concentration killing 50% of cells) greater than 100 µM and a TGI greater than 100 µM.

On to `CCN(CC)CCCNc1ccc(NCCCN(C)CCCNc2ccc(NCCCN(CC)CC)c3c2C(=O)c2cnccc2C3=O)c2c1C(=O)c1ccncc1C2=O`, for which, in test [1], the GI50 turned out to be 83 µM, the LC50 (concentration killing 50% of cells) is greater than 100 µM and the TGI was greater than 100 µM. Besides, in test [2], the Ratio was found to be 1.7.

In general, GI50 refers to the concentration giving 50% growth inhibition. Low values mean more potent growth inhibition, high ones less potent growth inhibition. The term TGI denotes the concentration giving total growth inhibition.
